ChEMBL document CHEMBL2203132, “Synthesis and antibiofilm activity of marine natural product-based 4-thiazolidinones derivatives” (2012)
≈ marks a conversion by molar mass, not a printed value.

Key:
Format in all cases: functional
[1] = test system: Staphylococcus epidermidis; assay: Antimicrobial activity against Staphylococcus epidermidis ATCC 12228 by broth microdilution method
[2] = test system: Staphylococcus aureus; assay: Antibiofilm activity against Staphylococcus aureus ATCC 29213 biofilms incubated at 37 degC for 16 hrs; conditions: ATCC 29213, 16 h
[3] = test system: Enterococcus faecalis; assay: Antibiofilm activity against Enterococcus faecalis ATCC 29212 biofilms incubated at 37 degC for 16 hrs; conditions: ATCC 29212, 16 h
[4] = test system: Staphylococcus aureus; assay: Bactericidal activity against Staphylococcus aureus ATCC 29213 using sub-cultures from MIC method grown subsequently on Mueller-Hinton agar plates at 37 degC for 24 hrs; conditions: ATCC 29213, 24 h
[5] = test system: Staphylococcus aureus; assay: Antimicrobial activity against Staphylococcus aureus ATCC 29213 by broth microdilution method
[6] = test system: Enterococcus faecalis; assay: Antimicrobial activity against Enterococcus faecalis ATCC 29212 using sub-cultures from MIC method grown subsequently on Mueller-Hinton agar plates at 37 degC for 24 hrs; conditions: ATCC 29212, 24 h
[7] = test system: Staphylococcus epidermidis; assay: Antimicrobial activity against Staphylococcus epidermidis ATCC 12228 using sub-cultures from MIC method grown subsequently on Mueller-Hinton agar plates at 37 degC for 24 hrs; conditions: ATCC 12228, 24 h
[8] = test system: Enterococcus faecalis; assay: Antimicrobial activity against Enterococcus faecalis ATCC 29212 by broth microdilution method
[9] = test system: Staphylococcus epidermidis; assay: Antibiofilm activity against Staphylococcus epidermidis ATCC 12228 biofilms incubated at 37 degC for 16 hrs; conditions: ATCC 12228, 16 h
[10] = test system: Staphylococcus aureus; assay: Potency index, ratio of MIC for vancomycin to MIC for compound against Staphylococcus aureus ATCC 29213 biofilms incubated at 37 degC for 16 hrs

Row | MIC [1] [µg/mL] | MIC [2] [µg/mL] | MIC [3] [µg/mL] | MIC [5] [µg/mL] | MIC [8] [µg/mL] | MIC [9] [µg/mL] | Compound | MBC [4] [µg/mL] | MBC [6] [µg/mL] | MBC [7] [µg/mL] | Ratio [10]
1 | 1.56 (≈ 3.19 µM) | 0.78 (≈ 1.59 µM) | 6.25 (≈ 12.8 µM) | 0.78 (≈ 1.59 µM) | 6.25 (≈ 12.8 µM) | 3.12 (≈ 6.39 µM) | COc1ccc(C2SCC(=O)N2NC(=O)c2cc(Br)c(Br)n2C)cc1 (stereo not given) | 6.25 (≈ 12.8 µM) | 25 (≈ 51.1 µM) | 3.12 (≈ 6.39 µM) | 3
2 | 6.25 (≈ 12.4 µM) | 6.25 (≈ 12.4 µM) | 25 (≈ 49.7 µM) | 3.12 (≈ 6.21 µM) | 50 (≈ 99.4 µM) | 12.5 (≈ 24.8 µM) | COc1ccc(C2SCCC(=O)N2NC(=O)c2cc(Br)c(Br)n2C)cc1 (stereo not given) | 6.25 (≈ 12.4 µM) | 100 (≈ 199 µM) | 12.5 (≈ 24.8 µM) | 
3 | 6.25 (≈ 12 µM) | 6.25 (≈ 12 µM) | 25 (≈ 48.1 µM) | 3.12 (≈ 6.02 µM) | 25 (≈ 48.1 µM) | 12.5 (≈ 24.1 µM) | COc1ccc(C2SCCC(=O)N2NC(=O)c2cc(Br)c(Br)n2C)c(O)c1 (stereo not given) | 6.25 (≈ 12 µM) | 50 (≈ 96.3 µM) | 12.5 (≈ 24.1 µM) | 
4 | 1.56 (≈ 3.18 µM) | 1.56 (≈ 3.18 µM) | 12.5 (≈ 25.4 µM) | 0.78 (≈ 1.59 µM) | 6.25 (≈ 12.7 µM) | 3.12 (≈ 6.36 µM) | Cn1c(C(=O)NN2C(=O)CSC2c2cc(O)ccc2O)cc(Br)c1Br (stereo not given) | 3.12 (≈ 6.36 µM) | 12.5 (≈ 25.4 µM) | 3.12 (≈ 6.36 µM) | 2
5 | 6.25 (≈ 12 µM) | 6.25 (≈ 12 µM) | 25 (≈ 48.1 µM) | 3.12 (≈ 6.02 µM) | 25 (≈ 48.1 µM) | 12.5 (≈ 24.1 µM) | COc1ccc(C2SCCC(=O)N2NC(=O)c2cc(Br)c(Br)n2C)cc1O (stereo not given) | 6.25 (≈ 12 µM) | 50 (≈ 96.3 µM) | 12.5 (≈ 24.1 µM) | 
6 | 1.56 (≈ 3.09 µM) | 1.56 (≈ 3.09 µM) | 12.5 (≈ 24.7 µM) | 0.78 (≈ 1.54 µM) | 12.5 (≈ 24.7 µM) | 3.12 (≈ 6.19 µM) | COc1ccc(C2SCC(=O)N2NC(=O)c2cc(Br)c(Br)n2C)c(O)c1 (stereo not given) | 6.25 (≈ 12.4 µM) | 25 (≈ 49.5 µM) | 3.12 (≈ 6.19 µM) | 2
7 | 1.56 (≈ 3.09 µM) | 3.12 (≈ 6.19 µM) | 12.5 (≈ 24.7 µM) | 1.56 (≈ 3.09 µM) | 3.12 (≈ 6.19 µM) | 3.12 (≈ 6.19 µM) | COc1ccc(C2SCC(=O)N2NC(=O)c2cc(Br)c(Br)n2C)cc1O (stereo not given) | 6.25 (≈ 12.4 µM) | 12.5 (≈ 24.7 µM) | 6.25 (≈ 12.4 µM) | 
8 | 6.25 (≈ 12.4 µM) | 6.25 (≈ 12.4 µM) | 25 (≈ 49.5 µM) | 3.12 (≈ 6.19 µM) | 25 (≈ 49.5 µM) | 12.5 (≈ 24.7 µM) | Cn1c(C(=O)NN2C(=O)CCSC2c2cc(O)ccc2O)cc(Br)c1Br (stereo not given) | 12.5 (≈ 24.7 µM) | 50 (≈ 99 µM) | 12.5 (≈ 24.7 µM) | 

Continued, compound first:

Row | Compound | MIC [1] [µg/mL] | MIC [2] [µg/mL] | MIC [3] [µg/mL] | MIC [5] [µg/mL] | MIC [8] [µg/mL] | MIC [9] [µg/mL] | MBC [4] [µg/mL] | MBC [6] [µg/mL] | MBC [7] [µg/mL] | Ratio [10]
9 | Cn1c(C(=O)NN2C(=O)CCSC2c2ccc(Cl)cc2)cc(Br)c1Br (stereo not given) | 6.25 (≈ 12.3 µM) | 6.25 (≈ 12.3 µM) | 25 (≈ 49.2 µM) | 3.12 (≈ 6.16 µM) | 25 (≈ 49.2 µM) | 12.5 (≈ 24.6 µM) | 12.5 (≈ 24.6 µM) | 50 (≈ 98.5 µM) | 12.5 (≈ 24.6 µM) | 
10 | Cn1c(C(=O)NN2C(=O)CSC2c2ccccc2)cc(Br)c1Br (stereo not given) | 3.12 (≈ 6.81 µM) | 3.12 (≈ 6.81 µM) | 12.5 (≈ 27.2 µM) | 1.56 (≈ 3.4 µM) | 12.5 (≈ 27.2 µM) | 12.5 (≈ 27.2 µM) | 6.25 (≈ 13.6 µM) | 25 (≈ 54.4 µM) | 6.25 (≈ 13.6 µM) | 
11 | Cn1c(C(=O)NN2C(=O)CCSC2c2ccc([N+](=O)[O-])cc2)cc(Br)c1Br (stereo not given) | 6.25 (≈ 12.1 µM) | 6.25 (≈ 12.1 µM) | 25 (≈ 48.2 µM) | 3.12 (≈ 6.03 µM) | 50 (≈ 96.5 µM) | 12.5 (≈ 24.1 µM) | 6.25 (≈ 12.1 µM) | 50 (≈ 96.5 µM) | 12.5 (≈ 24.1 µM) | 
12 | Cn1c(C(=O)NN2C(=O)CCSC2c2ccccc2)cc(Br)c1Br (stereo not given) | 6.25 (≈ 13.2 µM) | 12.5 (≈ 26.4 µM) | 25 (≈ 52.8 µM) | 12.5 (≈ 26.4 µM) | 50 (≈ 106 µM) | 12.5 (≈ 26.4 µM) | 6.25 (≈ 13.2 µM) | 100 (≈ 211 µM) | 12.5 (≈ 26.4 µM) | 
13 | Cn1c(C(=O)NN2C(=O)CSC2c2ccc(Cl)cc2)cc(Br)c1Br (stereo not given) | 1.56 (≈ 3.16 µM) | 1.56 (≈ 3.16 µM) | 12.5 (≈ 25.3 µM) | 0.78 (≈ 1.58 µM) | 12.5 (≈ 25.3 µM) | 3.12 (≈ 6.33 µM) | 3.12 (≈ 6.33 µM) | 25 (≈ 50.6 µM) | 3.12 (≈ 6.33 µM) | 2
14 | Cn1c(C(=O)NN2C(=O)CSC2c2ccc([N+](=O)[O-])cc2)cc(Br)c1Br (stereo not given) | 1.56 (≈ 3.09 µM) | 0.78 (≈ 1.55 µM) | 12.5 (≈ 24.8 µM) | 0.78 (≈ 1.55 µM) | 12.5 (≈ 24.8 µM) | 3.12 (≈ 6.2 µM) | 6.25 (≈ 12.4 µM) | 25 (≈ 49.6 µM) | 6.25 (≈ 12.4 µM) | 3
15 | Cn1c(C(=O)NN2C(=O)CCSC2C/C=C/c2ccccc2)cc(Br)c1Br (stereo not given) | 6.25 (≈ 12.2 µM) | 25 (≈ 48.7 µM) | 50 (≈ 97.4 µM) | 12.5 (≈ 24.4 µM) | 25 (≈ 48.7 µM) | 25 (≈ 48.7 µM) | 50 (≈ 97.4 µM) | 50 (≈ 97.4 µM) | 12.5 (≈ 24.4 µM) | 
16 | Cn1c(C(=O)NN2C(=O)CSC2C/C=C/c2ccccc2)cc(Br)c1Br (stereo not given) | 25 (≈ 50.1 µM) | 6.12 (≈ 12.3 µM) | 6.25 (≈ 12.5 µM) | 6.25 (≈ 12.5 µM) | 25 (≈ 50.1 µM) | 6.25 (≈ 12.5 µM) | 12.5 (≈ 25 µM) | 12.5 (≈ 25 µM) | 12.5 (≈ 25 µM) | 
17 | Cn1c(C(=O)NN2C(=O)CSC2c2ccc(F)cc2)cc(Br)c1Br (stereo not given) | 1.56 (≈ 3.27 µM) | 1.56 (≈ 3.27 µM) | 12.5 (≈ 26.2 µM) | 0.78 (≈ 1.63 µM) | 3.12 (≈ 6.54 µM) | 3.12 (≈ 6.55 µM) | 3.12 (≈ 6.55 µM) | 12.5 (≈ 26.2 µM) | 3.12 (≈ 6.55 µM) | 2
18 | Cn1c(C(=O)NN2C(=O)CCSC2c2ccc(F)cc2)cc(Br)c1Br (stereo not given) | 6.25 (≈ 12.7 µM) | 6.25 (≈ 12.7 µM) | 25 (≈ 50.9 µM) | 3.12 (≈ 6.36 µM) | 25 (≈ 50.9 µM) | 12.5 (≈ 25.4 µM) | 12.5 (≈ 25.4 µM) | 50 (≈ 102 µM) | 12.5 (≈ 25.4 µM) | 
19 | CN[C@H](CC(C)C)C(=O)N[C@H]1C(=O)N[C@@H](CC(N)=O)C(=O)N[C@H]2C(=O)N[C@H]3C(=O)N[C@H](C(=O)N[C@H](C(=O)O)c4cc(O)cc(O)c4-c4cc3ccc4O)[C@H](O)c3ccc(c(Cl)c3)Oc3cc2cc(c3O[C@@H]2O[C@H](CO)[C@@H](O)[C@H](O)[C@H]2O[C@H]2C[C@](C)(N)[C@H](O)[C@H](C)O2)Oc2ccc(cc2Cl)[C@H]1O [VANCOMYCIN] |  | 3.12 (≈ 2.16 µM) | 3.12 (≈ 2.16 µM) |  | 3.12 (≈ 2.16 µM) | 3.12 (≈ 2.16 µM) | 3.12 (≈ 2.16 µM) | 6.25 (≈ 4.31 µM) | 3.12 (≈ 2.16 µM) | 
